# From publication PMC6199251, “Oncolysis with DTT-205 and DTT-304 generates immunological memory in cured animals” (Cell Death & Disease, 2018)
# Assays:
# [1] = test system: caspase-3; experiment: Caspase-3 activation (immunostaining of cleaved caspase-3); format: cell-based, human; details: U2OS, 0.65 to 10 µM DTT peptides; staurosporine as positive control
# Experimental: Fig. 3 Cell death induced by DTT-205 and DTT-304. Human osteosarcoma U2OS cells were treated with 0.65 to 10 µM DTT peptides for the indicated time and following assessed for the activation of caspase-3 (CASP3). The pan-kinase inhibitor staurosporine (STS) was used as positive control. Representative images (a, b) and quantifications of CASP3 activation (c, d) are depicted while pyknosis was assessed by measuring the decrease in Hoechst 33342-stained nuclear area (e, f) by conventional microscopy (size bar equals 10 µm; mean ± SD of triplicate assessments, Student’s t test, […], **p < 0.01, ***p < 0.001). In order to assess the cell death modality, U2OS cells were pretreated with the ferroptosis inhibitor ferrostatin-1 (FER-1), the pan-caspase inhibitor zVAD-fmk (zVAD) or the antioxidants N-actylcystein (NAC) and reduced glutathione (GSH) before the addition of 2.5 µM of DTT peptides (g, h). […] Mouse embryonic fibroblasts (MEFs) that were either wild type, single- or double knockout for the proapoptotic proteins Bax and/or Bak were treated with 0.65 to 10 µM of DTT-205 or DTT-304 and viability was assessed by means of an exclusion dye in epifluorescence microscopy (k, l; mean ± SD of triplicate assessments. Student’s t test, […], **p < 0.01, ***p < 0.001). […]
# [2] = test system: U2OS cells; experiment: Lipid droplet formation (electron microscopy, Nile Red staining); format: cell-based, human; details: 0.65 to 10 µM, 6 h, epifluorescence microscopy
# Experimental: Fig. 1 DTT peptides induce the formation of lipid droplets. Human osteosarcoma U2OS cells were treated with 2.5 µM of either DTT-205 or DTT-304 for 6 h. Cells were fixed and subjected to electron microscopy. The overview micrographs in the upper panel depict necrotic morphologies (N) of some of the treated cells and the high magnification micrographs in the lower panel show the formation of lipid droplets (L) in intact cells. Size bars equals 10 µm (upper panel) and 1 µm (lower panel). Representative images (a) and quantifications (b, c) are depicted (mean ± SD of a minimum of five view fields). The formation of lipid droplets in response to increasing doses from 0.65 to 10 µM DTT peptides was quantified by means of the lipophilic dye Nile Red at 6 h and 24 h post treatment in epifluorescence microscopy. Representative images (d) and quantifications (e, f) are shown (mean ± SD of triplicate assessments, Student’s t test, […], **p < 0.01). Temperature dependency of the lipid droplet formation was assessed by keeping the cell cultures upon treatment with 0.65 to 10 µM DTT-205 (g) and DTT-304 (h) at the indicated temperature for 6 h before Nile Red staining. […]
# Figure S2. […] The formation of lipid droplets in response to increasing doses from 0.65 to 10 µM DTT-peptides was quantified by means of the lipophilic dye Nile Red in epifluorescence microscopy. […]
# [3] = cited from earlier work
# From the text: When added to human cancer cells, DTT-205 or DTT-304 stimulated a necrosis-like disruption of cellular morphology. […] Staining with the red fluorescent lipophilic dye Nile red confirmed the formation of lipid droplets in the cytoplasm of cells treated with DTT-205 or DTT-304 that occurred in a time and dose-dependent fas ...
Compound,caspase-3 activation (fraction of cells positive for mature caspase-3 fragment) [1],formation of lipid droplets [2],cytotoxic potential in the presence of serum [3]
CN[C@@H]1C[C@H]2O[C@@](C)([C@@H]1OC)n1c3ccccc3c3c4c(c5c6ccccc6n2c5c31)C(=O)NC4 [staurosporine],a significant fraction of cells,,
LTX-315,,"but not the LTX compounds, induced lipid droplets",lost their cytotoxic potential in the presence of serum
